Test results taken from the NIST ThermoML archive (doi:10.1016/j.jct.2012.02.037).

Assays:
[1] = 303.15 K; 101.33 kPa; Liquid; Vibrating tube method
[2] = refractive index (Na D-line) (dimensionless); conditions: 303.15 K; 101.33 kPa; Liquid; Standard Abbe refractometry
[3] = excess molar enthalpy (molar enthalpy of mixing); xn = mol fraction of the nth substance listed; conditions: 300 K, 101 kPa, Liquid, Flow calorimetry

CCCCO [butan-1-ol]
Conditions | mass density [kg/m3] | refractive index
[1] | 801.98 | –
[2] | – | 1.3962

CCC(C)O (configuration not stated) [butan-2-ol]
Conditions | mass density [kg/m3] | refractive index
[1] | 798.58 | –
[2] | – | 1.394

OC1CCCCC1 [cyclohexanol]
Conditions | mass density [kg/m3] | refractive index
[1] | 941.36 | –
[2] | – | 1.4632

OC1CCCCC1 [cyclohexanol] + CC(C)O
[3]
Conditions | excess molar enthalpy [kcal/mol]
x1 = 0.0817 | 0.0162
x1 = 0.1653 | 0.0276
x1 = 0.2454 | 0.0356
x1 = 0.3436 | 0.0429
x1 = 0.5462 | 0.0466
x1 = 0.6326 | 0.0451
x1 = 0.7173 | 0.0405
x1 = 0.8036 | 0.0298
x1 = 0.9097 | 0.0172

OC1CCCCC1 [cyclohexanol] + CCC(C)O
[3]
Conditions | excess molar enthalpy [kcal/mol]
x1 = 0.0831 | 0.0112
x1 = 0.0874 | 0.0117
x1 = 0.1613 | 0.019
x1 = 0.1704 | 0.0201
x1 = 0.2787 | 0.0284
x1 = 0.3304 | 0.0304
x1 = 0.4131 | 0.0334
x1 = 0.5657 | 0.0359
x1 = 0.6512 | 0.0363
x1 = 0.7441 | 0.0325
x1 = 0.7557 | 0.0319
x1 = 0.8271 | 0.0247
x1 = 0.8352 | 0.0238
x1 = 0.9129 | 0.0128
x1 = 0.9201 | 0.0127

OC1CCCCC1 [cyclohexanol] + CCCCO
[3]
Conditions | excess molar enthalpy [kcal/mol]
x1 = 0.0976 | 0.00894
x1 = 0.1867 | 0.0143
x1 = 0.3025 | 0.0214
x1 = 0.3622 | 0.0241
x1 = 0.4484 | 0.0271
x1 = 0.5609 | 0.0279
x1 = 0.6402 | 0.0279
x1 = 0.7119 | 0.0261
x1 = 0.7842 | 0.022
x1 = 0.785 | 0.0223
x1 = 0.8549 | 0.0168
x1 = 0.8747 | 0.0141
x1 = 0.9059 | 0.011

OC1CCCCC1 [cyclohexanol] + CCCO
[3]
Conditions | excess molar enthalpy [kcal/mol]
x1 = 0.0808 | 0.00583
x1 = 0.1568 | 0.0106
x1 = 0.2326 | 0.0151
x1 = 0.3085 | 0.0175
x1 = 0.3888 | 0.0201
x1 = 0.4614 | 0.0226
x1 = 0.547 | 0.0236
x1 = 0.6359 | 0.023
x1 = 0.7223 | 0.0205
x1 = 0.8063 | 0.0166
x1 = 0.901 | 0.00978

OC1CCCCC1 [cyclohexanol] + CCO
[3]
Conditions | excess molar enthalpy [kcal/mol]
x1 = 0.0883 | 0.0164
x1 = 0.1688 | 0.0283
x1 = 0.2501 | 0.0351
x1 = 0.337 | 0.0397
x1 = 0.456 | 0.0422
x1 = 0.5436 | 0.0424
x1 = 0.6255 | 0.0391
x1 = 0.7119 | 0.0348
x1 = 0.8026 | 0.0279
x1 = 0.9062 | 0.016

OC1CCCCC1 [cyclohexanol] + CO
[3]
Conditions | excess molar enthalpy [kcal/mol]
x1 = 0.0742 | 0.0249
x1 = 0.1422 | 0.0368
x1 = 0.2234 | 0.0468
x1 = 0.2948 | 0.051
x1 = 0.4871 | 0.0514
x1 = 0.5587 | 0.0463
x1 = 0.6333 | 0.0406
x1 = 0.7266 | 0.0318
x1 = 0.8274 | 0.0196
x1 = 0.9162 | 0.0101

CCO [ethanol]
Conditions | mass density [kg/m3] | refractive index
[1] | 780.82 | –
[2] | – | 1.358

CO [methanol]
Conditions | mass density [kg/m3] | refractive index
[1] | 781.87 | –
[2] | – | 1.3255

CCCO [propan-1-ol]
Conditions | mass density [kg/m3] | refractive index
[1] | 795.53 | –
[2] | – | 1.3821

CC(C)O [propan-2-ol]
Conditions | mass density [kg/m3] | refractive index
[1] | 776.71 | –
[2] | – | 1.3741
